Experimental data: PubChem BioAssay AID743394 (Broad Institute, 2014)
The source made the active and inactive calls.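 The calls were made as follows: active = 40% activation versus positive control reached by fitted dose-response curve at or below highest valid tested dose; inconclusive = poor fit quality, or flat fit with activation between 30% and 70%; inactive = the rest.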

test system: 68-5-11 mouse fibroblast XiGFP reporter, % GFP-positive imaging, 3 d; test: inactive X chromosome reactivation in XiGFP fibroblasts, dose response, imaging, 68-5-11 mouse fibroblasts, GFP, cherry-pick (AID 743394); details: cells co-treated with 5-aza-dC sensitizer;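 also: sensitizer 5-aza-dC present in the wells at 0.5 mM final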

**Q.** Which AC40 does the source give for `O=S(=O)(Nc1cc2nc3ccccc3nc2n1Cc1ccccc1)c1ccc(Cl)cc1` here?
**A.** > 19.5 µM (inactive)

**Q.** `CCOC(=O)Cn1c(=NC(=O)c2ccc([N+](=O)[O-])s2)sc2ccccc21` was tested. Which AC40 did it give?
**A.** 7.3 µM

**Q.** With `COc1cc2c3nnc(-c4ccc(F)cc4)c-3cn(Cc3ccccc3)c2cc1OC` as the compound, how does the AC40 read?
**A.** 1.23 µM

**Q.** With `CN1/C(=C/C=C(C#N)C#N)C(C)(C)c2ccccc21` as the compound, how does the AC40 read?
**A.** 11.3 µM

**Q.** For `Cc1cccc2cc3c(N)c(C(=O)N4CCCc5ccccc54)sc3nc12`, which AC40 is on record?
**A.** 9.89 µM

**Q.** How did the AC40 turn out when `COc1ccc(NC(=O)Nc2ccc3c(c2)CC(=O)N([C@H](C)CO)C[C@H](C)[C@@H](CN(C)S(=O)(=O)c2ccc(F)cc2)O3)cc1` was run?
**A.** 18.6 µM

**Q.** How did the AC40 turn out when `CCN1/C(=C/c2ccc3cc(C)ccc3[n+]2CC)Sc2ccccc21` was run?
**A.** 0.228 µM

**Q.** How did the AC40 turn out when `COc1cc2c3nnc(-c4ccc(F)cc4)c-3cn(Cc3ccccc3F)c2cc1OC` was run?
**A.** 1.57 µM

**Q.** How did the AC40 turn out when `CCN1/C(=C/c2ccc3cc(C)ccc3[n+]2CC)Sc2cc(C)c(C)cc21` was run?
**A.** 1.29 µM

**Q.** `CCc1cccc2cc3c(N)c(C(=O)Nc4ccc(S(=O)(=O)N5CCCC5)cc4)sc3nc12` was tested. Which AC40 did it give?
**A.** 4.01 µM

**Q.** `Cc1cc(C)cc(NC(=O)/C=C/c2ccc([N+](=O)[O-])s2)c1` was tested. Which AC40 did it give?
**A.** 1.7 µM

**Q.** With `Cc1[nH]c2ccccc2c1/C=N/Nc1ccc([N+](=O)[O-])cc1` as the compound, how does the AC40 read?
**A.** 9.23 µM
